Measurements as given in US6875760B2 (Novo Nordisk A/S, priority 1999, dated 2005).

molecular target: T1, human glucagon receptor (Homo sapiens, UniProt P47871); assay: Glucagon Binding Assay (III); conditions: BHK cell membranes, WGA SPA beads, 125I-glucagon; read-out: Glu Bd Assay (III) IC50
T1 construct: expressed in transfected cells; host or cells: BHK (baby hamster kidney) cells
Procedure, shortened: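 Non-specific binding was set with 500 nM glucagon in this SPA-type binding assay using WGA beads. The receptor source was a membrane preparation, kept on ice or at 4 °C, from BHK cells transfected with the human receptor. Scintillation counts were taken after 4 hours of shaking and 8–48 hours of settling.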

T1 sequence (P47871 26-477): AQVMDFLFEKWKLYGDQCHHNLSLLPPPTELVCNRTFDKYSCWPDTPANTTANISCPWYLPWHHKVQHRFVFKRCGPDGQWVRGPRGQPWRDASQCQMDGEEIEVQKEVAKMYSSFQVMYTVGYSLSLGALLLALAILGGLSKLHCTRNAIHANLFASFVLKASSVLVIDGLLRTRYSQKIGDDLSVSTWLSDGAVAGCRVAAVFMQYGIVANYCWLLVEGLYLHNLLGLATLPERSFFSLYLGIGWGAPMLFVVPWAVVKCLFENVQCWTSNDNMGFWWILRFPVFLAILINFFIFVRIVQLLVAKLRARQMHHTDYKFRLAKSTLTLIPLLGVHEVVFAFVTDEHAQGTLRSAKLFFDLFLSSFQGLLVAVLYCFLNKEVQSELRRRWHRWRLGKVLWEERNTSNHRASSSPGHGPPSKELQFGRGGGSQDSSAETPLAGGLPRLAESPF

IC50 | SMILES
167 nM | O=C(O)CCNC(=O)c1ccc(CN(C(=O)Nc2cccc([N+](=O)[O-])c2)c2ccc(C3CCCCC3)cc2)cc1 [Example 443, 3-{4-[1-(4-Cyclohexylphenyl)-3-(3-nitrophenyl)ureidomethyl]benzoylamino}propionic acid]
7 nM | O=C(O)CCNC(=O)c1ccc(CN(C(=O)Nc2ccc3c(c2)C(=O)N(CC2CC2)C3=O)c2ccc(C3CCCCC3)cc2)cc1 [Example 642, 3-{4-[3-(N′-[Cyclopropylmethyl]phthalimid-4-yl)-1-(4-cyclohexylphenyl)ureidomethyl]benzoylamino}propionic acid]
278 nM | CC(C)(C)c1ccc(N(Cc2ccc(C(=O)Nc3nn[nH]n3)cc2)C(=O)Nc2ccccc2)cc1 [Example 329]
1190 nM | CC1CCC(N(Cc2ccc(C(=O)NCCC(=O)O)cc2)C(=O)Nc2ccc(OCc3ccccc3)cc2)CC1 (stereo not shown) [Example 45, 3-{4-[3-(4-Benzyloxyphenyl)-1-(4-methylcyclohexyl)ureidomethyl]benzoylamino}propionic acid]
38 nM | CC(C)(C)c1ccc(N(Cc2ccc(C(=O)NCCC(=O)O)cc2)C(=O)Nc2ccc3c(c2)C(=O)N(CC2CC2)C3=O)cc1 [Example 643, 3-{4-[3-(N′-[Cyclopropylmethyl]phthalimid-4-yl)-1-(4-tert-butylphenyl)ureidomethyl]benzoylamino}propionic acid]
73 nM | O=C(Nc1nn[nH]n1)c1ccc(CN(C(=O)NCc2ccccc2OC(F)(F)F)c2ccc(C3CCCCC3)cc2)cc1 [Example 348, 4-[1-(4-Cyclohexylphenyl)-3-(2-trifluoromethoxybenzyl)ureidomethyl]-N-(2H-tetrazol-5-yl)benzamide]
626 nM | O=C(Nc1nn[nH]n1)c1ccc(CN(C(=O)CSCc2ccccc2)c2ccc(C3CCCCC3)cc2)cc1 [Example 532, 4-{[(2-Benzylsulfanylacetyl)-(4-cyclohexylphenyl)amino]methyl}-N-(2H-tetrazol-5-yl)benzamide]
53 nM | O=C(Nc1nn[nH]n1)c1ccc(CN(C(=O)Nc2ccc(S(=O)(=O)C(F)(F)F)cc2)c2ccc(C3CCCCC3)cc2)cc1 [Example 455, 4-[1-(4-Cyclohexylphenyl)-3-(4-trifluoromethylsulfonylphenyl)ureidomethyl]-N-(2H-tetrazol-5-yl)benzamide]
772 nM | CNS(=O)(=O)c1ccc(Cl)c(NC(=O)N(Cc2ccc(C(=O)Nc3nn[nH]n3)cc2)c2ccc(C3CCCCC3)cc2)c1 [Example 467, 4-[3-(2-Chloro-5-methylsulfamoylphenyl)-1-(4-cyclohexylphenyl)ureidomethyl]-N-(2H-tetrazol-5-yl)benzamide]
86 nM | O=C(Nc1nn[nH]n1)c1ccc(CN(C(=O)Nc2cccc(S(=O)(=O)N3CCc4ccccc43)c2)c2ccc(C3CCCCC3)cc2)cc1 [Example 267, 4-{1-(4-Cyclohexylphenyl)-3-[3-(2,3-dihydroindole-1-sulfonyl)phenyl]ureidomethyl}-N-(2H-tetrazol-5-yl)benzamide]
96 nM | CC(C)(C)c1ccc(N(Cc2ccc(C(=O)NCCC(=O)O)cc2)C(=O)Nc2ccc(OC(F)(F)F)cc2)cc1 [Example 373, 3-{4-[1-(4-tert-Butylphenyl)-3-(4-trifluoromethoxyphenyl)ureidomethyl]benzoylamino}propionic acid]
928 nM | CCCCC(CC)CN(Cc1ccc(C(=O)NCCC(=O)O)cc1)C(=O)Nc1ccc(Cl)cc1 (stereo not shown) [Example 38, 3-{4-[3-(4-Chlorophenyl)-1-(2-ethylhexyl)ureidomethyl]benzoylamino}propionic acid]
18 nM | CCCCN1C(=O)c2ccc(NC(=O)N(Cc3ccc(C(=O)NCCC(=O)O)cc3)c3ccc(C4CCCCC4)cc3)cc2C1=O [Example 635, 3-{4-[3-(N′-Butylphthalimid-4-yl)-1-(4-cyclohexylphenyl)ureidomethyl]benzoylamino}propionic acid]
523 nM | CC(C)(C)C1CCC(N(Cc2ccc(C(=O)Nc3nn[nH]n3)cc2)C(=O)c2ccc(-c3ccccc3)cc2)CC1 (stereo not shown) [Example 487, Biphenyl-4-carboxylic acid (4-tert-butylcyclohexyl)-[4-(2H-tetrazol-5-ylcarbamoyl)benzyl]amide]
293 nM | O=C(O)CCNC(=O)c1ccc(CN(C(=O)c2cccc(C(F)(F)F)c2)c2ccc(C3CCCCC3)cc2)cc1 [Example 524, 3-(4-{[(4-Cyclohexylphenyl)-(3-trifluoromethylbenzoyl)amino]methyl}benzoylamino)propionic acid]
45 nM | CSc1cccc(NC(=O)N(Cc2ccc(C(=O)Nc3nn[nH]n3)cc2)c2ccc(C(C)(C)C)cc2)c1 [Example 293, 4-[1-(4-tert-Butylphenyl)-3-(3-methylsulfanylphenyl)ureidomethyl]-N-(2H-tetrazol-5-yl)benzamide]
61 nM | CC(C)(C)C1CCC(N(Cc2ccc(C(=O)NCCC(=O)O)cc2)NC(=O)c2ccc(OC(F)(F)F)cc2)CC1 (stereo not shown) [Example 424, 3-{4-[N-(4-tert-Butylcyclohexyl)-N′-(4-trifluoromethoxybenzoyl)hydrazinomethyl]benzoylamino}propionic acid]
16 nM | N#Cc1cc(NC(=O)N(Cc2ccc(C(=O)Nc3nn[nH]n3)cc2)c2ccc(C3CCCCC3)cc2)cc(C(F)(F)F)c1 [Example 359, 4-[3-(3-Cyano-5-trifluoromethylphenyl)-1-(4-cyclohexylphenyl)ureidomethyl]-N-(2H-tetrazol-5-yl)benzamide]
21 nM | O=C(O)CCNC(=O)c1ccc(CN(C(=O)NCc2ccccc2-c2ccccc2)[C@H]2CC[C@H](C3CCCCC3)CC2)cc1 [Example 391]
841 nM | CC(C)(C)c1ccc(N(Cc2ccc(C(=O)Nc3nn[nH]n3)cc2)C(=O)Nc2cccc(C(=O)Oc3c(F)c(F)c(F)c(F)c3F)c2)cc1 [Example 457, 3-{3-(4-tert-Butylphenyl)-3-[4-(2H-tetrazol-5-ylcarbamoyl)benzyl]ureido}benzoic acid pentafluorophenyl ester]
184 nM | CCCc1ccc(N(Cc2ccc(C(=O)NCCC(=O)O)cc2)C(=O)Nc2ccc(OC(F)(F)F)cc2)cc1 [Example 439, 3-{4-[1-(4-Propylphenyl)-3-(4-trifluoromethoxyphenyl)ureidomethyl]benzoylamino}propionic acid]
261 nM | CCCCOC(=O)c1ccc(NC(=O)N(Cc2ccc(C(=O)NCCC(=O)O)cc2)C2CCC(C(C)C)CC2)cc1 (stereo not shown) [Example 84, 4-[3-[4-(2-Carboxyethylcarbamoyl)benzyl]-3-(4-isopropylcyclohexyl)ureido]benzoic acid butyl ester]
126 nM | O=C(O)CCNC(=O)c1ccc(CN(CCC(c2ccccc2)c2ccccc2)C(=O)Nc2ccc(OC(F)(F)F)cc2)cc1 [Example 18, 3-{4-[1-(3,3-Diphenylpropyl)-3-(4-trifluoromethoxyphenyl)ureidomethyl]benzoylamino}propionic acid]
512 nM | O=C(O)CCNC(=O)c1ccc(CN(NC(=O)c2ccc(OC(F)(F)F)cc2)C2CCC3CCCCC3C2)cc1 (stereo not shown) [Example 427, 3-{4-[N-(Decahydronaphthalen-2-yl)-N′-(4-trifluoromethoxybenzoyl)hydrazinomethyl]benzoylamino}propionic acid]
1060 nM | O=C(Nc1nn[nH]n1)c1ccc(CN(C(=O)c2cc3cc(OC(F)(F)F)ccc3[nH]2)c2ccc(C3CCCCC3)cc2)cc1 [Example 558, 5-Trifluoromethoxy-1H-indole-2-carboxylic acid (4-cyclohexylphenyl)-[4-(2H-tetrazol-5-ylcarbamoyl)benzyl]amide]
101 nM | CN(C)S(=O)(=O)c1cccc(NC(=O)N(Cc2ccc(C(=O)Nc3nn[nH]n3)cc2)c2ccc(C3CCCCC3)cc2)c1 [Example 275, 4-[1-(4-Cyclohexylphenyl)-3-(3-dimethylsulfamoylphenyl)ureidomethyl]-N-(2H-tetrazol-5-yl)benzamide]
255 nM | C[S+]([O-])c1cccc(NC(=O)N(Cc2ccc(C(=O)Nc3nn[nH]n3)cc2)c2ccc(C3CCCCC3)cc2)c1 (stereo not shown) [Example 472, 4-[1-(4-Cyclohexylphenyl)-3-(3-methylsulfinylphenyl)ureidomethyl]-N-(2H-tetrazol-5-yl)benzamide]
4 nM | O=C(Nc1nn[nH]n1)c1ccc(CN(C(=O)Nc2ccc3c(c2)C(=O)N(CC2CC2)C3=O)c2ccc(C3=CCCCC3)cc2)cc1 [Example 644, 4-[3-(N′-[Cyclopropylmethyl]phthalimid-4-yl)-1-(4-cyclohex-1-enylphenyl)ureidomethyl]-N-(2H-tetrazol-5-yl)benzamide]
1210 nM | O=C(O)CCNC(=O)c1ccc(CN(C(=O)Nc2ccc(OC(F)(F)F)cc2)C2CCC3(CC2)OCCO3)cc1 [Example 89, 3-{4-[1-(1,4-Dioxaspiro[4.5]dec-8-yl)-3-(4-trifluoromethoxyphenyl)ureidomethyl]benzoylamino}propionic acid]

SMILES | IC50
O=C(O)CCNC(=O)c1ccc(CN(C(=O)Oc2ccccc2[N+](=O)[O-])c2ccc(C3CCCCC3)cc2)cc1 [Example 415, 3-(4-{[(4-Cyclohexylphenyl)-(2-nitrophenoxycarbonyl)amino]methyl}benzoylamino)propionic acid] | 2420 nM
O=C(O)CCNC(=O)c1ccc(CN(C(=O)Oc2ccc(Br)cc2Br)c2ccc(C3CCCCC3)cc2)cc1 [Example 420, 3-(4-{[(4-Cyclohexylphenyl)-(2,4-dibromompheoxycarbonyl)amino]methyl}benzoylamino)propionic acid] | 729 nM
CS(=O)(=O)c1ccc(OC(=O)N(Cc2ccc(C(=O)NCCC(=O)O)cc2)c2ccc(C3CCCCC3)cc2)cc1 [Example 621, 3-(4-{[(4-Cyclohexylphenyl)-(4-(methylsulfonyl)phenoxycarbonyl)amino]methyl}benzoylamino)propionic acid] | 4600 nM
O=C(O)CCNC(=O)c1ccc(CN(C(=O)Oc2cccc([N+](=O)[O-])c2)c2ccc(C3CCCCC3)cc2)cc1 [Example 414, 3-(4-{[(4-Cyclohexylphenyl)-(3-nitrophenoxycarbonyl)amino]methyl}benzoylamino)propionic acid] | 934 nM
CC(C)(C)c1ccc(N(Cc2ccc(C(=O)Nc3nn[nH]n3)cc2)C(=O)Oc2ccc(S(C)(=O)=O)cc2)cc1 [Example 624] | 2000 nM
